Literature values in patent US20240300988A1, “CRYSTALLINE FORMS OF PENTAAZA MACROCYCLIC RING COMPLEX” (Galera Labs, LLC, priority 2023, published 2024).

Test system: VEGFr inhibitor-induced pulmonary disease
Settings: rat model; Tuder et al., Am. J. Respir. Cell Mol. Biol., 29, 88-97 (2003)

Compound: [Cl][Mn][Cl].c1cc2nc(c1)CN[C@H]1CCCC[C@@H]1NCCN[C@H]1CCCC[C@@H]1NC2 [GC4419]
- effect on VEGFr inhibitor-induced pulmonary disease: attenuate VEGFr inhibitor-induced pulmonary disease
